# Tests used:
# INS-R = target: T1, INS-R (Homo sapiens, UniProt P06213); assay: Radiometric protein kinase assay, INS-R; assay type: biochemical; settings: 1 μM ATP; read-out: Inhibitory activity (IC50:μM) INS-R
# T1 construct: host or cells: Sf9 insect cells (baculovirus)
# Text: (§1) All protein kinases were expressed in Sf9 insect cells as human recombinant GST-fusion proteins or His-tagged proteins by means of the baculovirus expression system. Kinases were purified by affinity chromatography using either GSH-agarose (Sigma) or Ni-NTH-agarose (Qiagen). The purity of each kinase was checked by SDS-PAGE/silver staining and the identity of each kinase was verified by western blot analysis with kinase specific antibodies or by mass spectroscopy.
# (§2) A radiometric protein kinase assay (^33PanQinase® Activity Assay) was used for measuring the kinase activity of the 24 protein kinases. […]
# (§3) The reaction cocktails were incubated at 30° C. for 80 minutes. […] Incorporation of ^33Pi was determined with a microplate scintillation counter (Microbeta Trilux, Wallac).
# (§4) The median value of the counts in column 1 (n=8) of each assay plate was defined as “low control”. This value reflects unspecific binding of radioactivity to the plate in the absence of a protein kinase but in the presence of the substrate. […]
# (§5) As part of the data evaluation the low control value from a particular plate was subtracted from the high control value as well as from all 80 “compound values” of the corresponding plate. The residual activity (in %) for each well of a particular plate was calculated by using the following formula: Res. Activity (%)=100×[(cpm of compound−low control)/(high control−low control)] […]
# B-RAF-VE = target: T2, B-RAF-VE (Homo sapiens, UniProt P15056, V600E); assay: Radiometric protein kinase assay, B-RAF-VE; assay type: biochemical; settings: 1 μM ATP; read-out: Inhibitory activity (IC50:μM) B-RAF-VE
# T2 construct: host or cells: Sf9 insect cells (baculovirus)
# T2 sequence (P15056 whole entry V600E): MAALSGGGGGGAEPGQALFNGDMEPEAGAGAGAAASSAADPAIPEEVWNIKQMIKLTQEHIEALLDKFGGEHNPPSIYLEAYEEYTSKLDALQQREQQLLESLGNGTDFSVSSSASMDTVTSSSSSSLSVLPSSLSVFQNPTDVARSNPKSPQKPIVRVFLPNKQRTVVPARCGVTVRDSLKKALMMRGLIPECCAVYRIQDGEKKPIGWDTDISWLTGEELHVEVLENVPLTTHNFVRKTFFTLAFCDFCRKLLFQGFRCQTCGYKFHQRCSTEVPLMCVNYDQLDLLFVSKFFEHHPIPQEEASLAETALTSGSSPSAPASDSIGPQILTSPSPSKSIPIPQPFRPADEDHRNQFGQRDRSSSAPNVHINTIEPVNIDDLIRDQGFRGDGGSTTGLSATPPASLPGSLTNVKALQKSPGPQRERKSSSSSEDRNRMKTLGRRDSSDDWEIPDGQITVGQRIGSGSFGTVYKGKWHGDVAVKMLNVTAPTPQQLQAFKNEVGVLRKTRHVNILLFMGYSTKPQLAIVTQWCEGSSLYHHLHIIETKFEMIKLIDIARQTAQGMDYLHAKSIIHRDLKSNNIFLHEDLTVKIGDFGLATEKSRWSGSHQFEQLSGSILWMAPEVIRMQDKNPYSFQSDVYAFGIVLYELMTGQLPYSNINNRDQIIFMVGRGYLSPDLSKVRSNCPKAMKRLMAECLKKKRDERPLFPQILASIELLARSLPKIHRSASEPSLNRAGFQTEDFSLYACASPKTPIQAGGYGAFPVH
# Text: as §1, §2, §3, §4, §5
# T1 sequence (P06213 980-1382 limits assumed): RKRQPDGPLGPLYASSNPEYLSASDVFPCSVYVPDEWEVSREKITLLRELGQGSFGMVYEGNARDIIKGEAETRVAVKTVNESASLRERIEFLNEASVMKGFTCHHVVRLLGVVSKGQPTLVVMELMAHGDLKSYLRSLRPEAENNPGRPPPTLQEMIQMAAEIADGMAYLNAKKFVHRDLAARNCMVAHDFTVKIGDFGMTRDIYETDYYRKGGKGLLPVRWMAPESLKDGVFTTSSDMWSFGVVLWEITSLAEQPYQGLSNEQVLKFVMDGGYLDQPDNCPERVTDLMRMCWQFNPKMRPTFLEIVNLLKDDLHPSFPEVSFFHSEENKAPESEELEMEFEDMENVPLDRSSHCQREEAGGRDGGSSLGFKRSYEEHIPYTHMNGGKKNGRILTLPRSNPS
IC50 (INS-R) [µM],IC50 (B-RAF-VE) [µM],SMILES
36,–,COC1CC/C=C/C[C@H](c2ccccc2)OC(=O)c2c(O)cc(O)c(Cl)c2CC(=O)C1 (stereo partly drawn) [A-2]
44,–,O=C1Cc2c(Cl)c(O)cc(O)c2C(=O)O[C@H](c2ccccc2)C/C=C/CCC(Cl)C1 (stereo partly drawn) [A-3]
–,50,O=C1/C=C/CCC2OC2C[C@H](c2ccccc2)OC(=O)c2c(O)cc(O)c(Cl)c2C1 (stereo partly drawn) [A-5]

# — patent US8450305B2, “Macrocyclic compounds useful as inhibitors of kinases and HSP90” (Universite de Strasbourg, priority 2006, dated 2013)
